# In patent US20080221086A1, “Novel Inhibitors of Glutaminyl Cyclase” (PROBIODRUG AG, priority 2006, published 2008):
# Biological target: hQC (Homo sapiens, UniProt Q16769)
# Assay: Fluorometric assay of glutaminyl cyclase (QC) inhibition, H-Gln-βNA or H-Gln-AMC substrate
# Type: biochemical
# Details: compound from preparative synthesis, purified by chromatography; fluorescent assay; read-out: IC50 hQC
# Summary of the method: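 Fluorometric coupled assays at 30° C in Tris/HCl pH 8.0 with EDTA and pyroglutamyl aminopeptidase used either 0.2 mM H-Gln-βNA (320/410 nm) or H-Gln-AMC (380/460 nm), started by QC. Screening used 4 mM inhibitor at substrate 1 KM. Ki came from fitting progress curves to competitive inhibition.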
# Chain of hQC (Q16769 29-361): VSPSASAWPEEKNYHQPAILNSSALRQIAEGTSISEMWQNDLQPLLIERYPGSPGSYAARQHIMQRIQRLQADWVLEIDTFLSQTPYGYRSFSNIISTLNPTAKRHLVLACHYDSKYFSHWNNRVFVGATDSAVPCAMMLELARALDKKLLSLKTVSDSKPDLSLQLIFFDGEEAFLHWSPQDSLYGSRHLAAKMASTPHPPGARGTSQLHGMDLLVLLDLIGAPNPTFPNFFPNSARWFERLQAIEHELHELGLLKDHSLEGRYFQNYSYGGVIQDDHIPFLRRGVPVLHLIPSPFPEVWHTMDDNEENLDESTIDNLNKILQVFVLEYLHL
row,IC50 [µM],Structure (SMILES)
1,0.997,"CC1=CC(C)C(C2/C(=N/C(C)C)NC(=O)N2c2ccc3[nH]cnc3c2)CC1 (centres unmarked) [Compound 254, 1-(1H-Benzoimidazol-5-yl)-5-(2,4-dimethyl-cyclohex-3-enyl)-4-(isopropylimino)-imidazolidin-2-one]"

# Same assay, conditions: read-out: IC50
row,Structure (SMILES),IC50 [µM]
1,"CN(C)c1ccc(C2/C(=N/C3CCc4ccccc43)NC(=O)N2c2ccc3[nH]cnc3c2)cc1 (centres unmarked) [Compound 242, 1-(1H-Benzoimidazol-5-yl)-5-(4-dimethylamino-phenyl)-4-indan-1-ylimino-imidazolidin-2-one]",0.004
2,"CC1=CC(C)C(C2/C(=N/CC(=O)N3CCCN(C)CC3)NC(=O)N2c2ccc3[nH]cnc3c2)CC1 (centres unmarked) [Compound 243, 1-(1H-Benzoimidazol-5-yl)-5-(2,4-dimethyl-cyclohex-3-enyl)-4-2-(4-methyl-1,4diazepan-1-yl)-2-oxo-ethylimino-imidazolidin-2-one]",5.8
3,"O=C1N/C(=N\C2CCCC2)C(c2cc(F)cc(F)c2)N1c1ccc2[nH]cnc2c1 (centres unmarked) [Compound 244, 1-(1H-Benzoimidazol-5-yl)-4-cyclopentylimino-5-(3,5-difluoro-phenyl)-imidazolidin-2-one]",0.4
4,"CCc1ccccc1/N=C1\NC(=O)N(c2ccc3[nH]cnc3c2)C1c1ccccc1 (centres unmarked) [Compound 245, 1-(1H-Benzoimidazol-5-yl)-4-2-ethyl-phenylimino-5-phenyl-imidazolidin-2-one]",7.6
5,"O=C1N/C(=N\C2CCCC2)C(c2coc3ccccc3c2=O)N1c1ccc2[nH]cnc2c1 (centres unmarked) [Compound 246, 1-(1H-Benzoimidazol-5-yl)-4-cyclopentylimino-5-(4-oxo-4H-chromen-3-yl)-imidazolidin-2-one]",7.6
6,"O=C1CCCN1CCC/N=C1\NC(=O)N(c2ccc3[nH]cnc3c2)C1c1ccnc2ccccc12 (centres unmarked) [Compound 247, 1-(1H-Benzoimidazol-5-yl)-4-3-(2-oxo-pyrrolidin-1-yl)-propylimino-5-quinolin-4-yl-imidazolidin-2-one]",3.1
7,"O=C(C/N=C1/NC(=O)N(c2ccc3nc[nH]c3c2)C1c1ccc2[nH]ccc2c1)N1CCC(O)CC1 (centres unmarked) [Compound 248, 1-(3H-Benzoimidazol-5-yl)-4-2-(4-hydroxy-piperidin-1-yl)-2-oxo-ethylimino-5-(1H-indol-5-yl)-imidazolidin-2-one]",0.4
8,"COC(=O)C(C)/N=C1\NC(=S)N(c2ccc3[nH]cnc3c2)C1c1ccc(C)cc1 (centres unmarked) [Compound 249, Methyl 2-(1-(1H-benzo[d]imidazol-5-yl)-2-thioxo-5-p-tolylimidazolidin-4-ylideneamino)propanoate]",5.8
9,"O=C(C/N=C1\NC(=O)N(c2ccc3nc[nH]c3c2)C1c1c(F)ccc(Cl)c1F)N1CCCCC1 (centres unmarked) [Compound 250, 1-(3H-Benzoimidazol-5-yl)-5-(3-chloro-2,6-difluoro-phenyl)-4-2-oxo-2-piperidin-1-yl-ethylimino-imidazolidin-2-one]",4.9
10,"S=C1N/C(=N/Cc2ccccc2)C(c2ccc(Cl)cc2)N1c1ccc2[nH]cnc2c1 (centres unmarked) [Compound 251, 1-(1H-Benzoimidazol-5-yl)-4-benzylimino-5-(4-chloro-phenyl)-imidazolidine-2-thione]",4
11,"O=C1CCCN1CCC/N=C1\NC(=S)N(c2ccc3[nH]cnc3c2)C1c1cc2ccccc2s1 (centres unmarked) [Compound 252, 1-(3-(5-(benzo[b]thiophen-2-yl)-1-(1H-benzo[d]imidazol-5-yl)-2-thioxoimidazolidin-4-ylideneamino)propyl)pyrrolidin-2-one]",7.6
12,"Cc1cccc(C2/C(=N/CCCN(C)C)NC(=O)N2c2ccc3[nH]cnc3c2)c1 (centres unmarked) [Compound 253, 4-(3-(Dimethylamino)propylimino)-1-(1H-benzo[d]imidazol-5-yl)-5-m-tolylimidazolidin-2-one]",9.4
13,"CC1=CC(C)C(C2/C(=N/C(C)C)NC(=O)N2c2ccc3[nH]cnc3c2)CC1 (centres unmarked) [Compound 254, 1-(1H-Benzoimidazol-5-yl)-5-(2,4-dimethyl-cyclohex-3-enyl)-4-(isopropylimino)-imidazolidin-2-one]",0.004
14,"O=C1CCCN1CCC/N=C1/NC(=S)N(c2ccc3[nH]cnc3c2)C1c1ccc2c(c1)OCO2 (centres unmarked) [Compound 255, 1-(3-(5-(benzo[d][1,3]dioxol-5-yl)-1-(1H-benzo[d]imidazol-5-yl)-2-thioxoimidazolidin-4-ylideneamino)propyl)pyrrolidin-2-one]",6.7
15,"S=C1N/C(=N\C2CCCC2)C(c2ccc3ccccc3c2)N1c1ccc2[nH]cnc2c1 (centres unmarked) [Compound 256, 1-(1H-Benzoimidazol-5-yl)-4-cyclopentylimino-5-naphthalen-2-yl-imidazolidine-2-thione]",9.4
16,"Cc1nc[nH]c1C1/C(=N/C2CCc3ccccc32)NC(=O)N1c1ccc2nc[nH]c2c1 (centres unmarked) [Compound 257, 3-(3H-Benzoimidazol-5-yl)-5-indan-1-ylimino-5′-methyl-1,3,4,5-tetrahydro-3′H-4,4′biimidazolyl-2-one]",0.4

# Results, then the molecule that gave them:
row,IC50 [µM],Structure (SMILES)
1,3.1,"S=C1N/C(=N/CCCc2ccccc2)C(c2cc3ccccc3s2)N1c1ccc2[nH]cnc2c1 (centres unmarked) [Compound 258, 5-Benzobthiophen-2-yl-1-(1H-benzoimidazol-5-yl)-4-3-phenyl-propylimino-imidazolidine-2-thione]"
2,2.2,"CC1=CC(C)C(C2/C(=N/c3ccc4c(c3)OCCO4)NC(=O)N2c2ccc3[nH]cnc3c2)CC1 (centres unmarked) [Compound 259, 1-(1H-Benzoimidazol-5-yl)-4-2,3-dihydro-benzo1,4dioxin-6-ylimino-5-(2,4-dimethyl-cyclohex-3-enyl)-imidazolidin-2-one]"
3,3.1,"S=C1N/C(=N/CCc2cccs2)C(c2cc3ccccc3s2)N1c1ccc2[nH]cnc2c1 (centres unmarked) [Compound 260, 5-Benzobthiophen-2-yl-1-(1H-benzoimidazol-5-yl)-4-2-thiophen-2-yl-ethylimino-imidazolidine-2-thione]"
4,6.7,"S=C1N/C(=N/Cc2ccccc2)C(c2cccc(Br)c2)N1c1ccc2[nH]cnc2c1 (centres unmarked) [Compound 261, 1-(1H-Benzoimidazol-5-yl)-4-benzylimino-5-(3-bromo-phenyl)-imidazolidine-2-thione]"
5,1.3,"Cc1ccc(C2/C(=N/C(C)(C)CC(C)(C)C)NC(=O)N2c2ccc3nc[nH]c3c2)c(C)c1 (centres unmarked) [Compound 262, 1-(3H-Benzoimidazol-5-yl)-5-(2,4-dimethyl-phenyl)-4-1,1,3,3-tetramethyl-butylimino-imidazolidin-2-one]"
6,1.3,"Cc1ccc2occ(C3/C(=N/CCCN4CCOCC4)NC(=O)N3c3ccc4[nH]cnc4c3)c(=O)c2c1 (centres unmarked) [Compound 263, 1-(1H-Benzoimidazol-5-yl)-5-(6-methyl-4-oxo-4H-chromen-3-yl)-4-3-morpholin-4-yl-propylimino-imidazolidin-2-one]"
7,8.5,"S=C1N/C(=N\c2ccccc2Br)C(c2ccc3ccccc3c2)N1c1ccc2nc[nH]c2c1 (centres unmarked) [Compound 264, 1-(3H-Benzoimidazol-5-yl)-4-2-bromo-phenylimino-5-naphthalen-2-yl-imidazolidine-2-thione]"
8,8.5,"O=C(C/N=C1/NC(=O)N(c2ccc3[nH]cnc3c2)C1C1=CCCCC1)N1CCSCC1 (centres unmarked) [Compound 265, 1-(1H-Benzoimidazol-5-yl)-5-cyclohex-1-enyl-4-2-oxo-2-thiomorpholin-4-yl-ethylimino-imidazolidin-2-one]"
9,8.5,"S=C1N/C(=N\C2CCCCC2)C(c2cc3c(cc2Br)OCO3)N1c1ccc2nc[nH]c2c1 (centres unmarked) [Compound 266, 1-(3H-Benzoimidazol-5-yl)-5-(6-bromo-benzo1,3dioxol-5-yl)-4-cyclohexylimino-imidazolidine-2-thione]"
10,4.9,"Cc1ccc2occ(C3/C(=N/CCCN4CCCC4=O)NC(=O)N3c3ccc4[nH]cnc4c3)c(=O)c2c1 (centres unmarked) [Compound 267, 1-(1H-Benzoimidazol-5-yl)-5-(6-methyl-4-oxo-4H-chromen-3-yl)-4-3-(2-oxo-pyrrolidin-1-yl)-propylimino-imidazolidin-2-one]"
11,9.4,"COC(=O)C(C)/N=C1/NC(=S)N(c2ccc3[nH]cnc3c2)C1c1c(F)ccc(Cl)c1F (centres unmarked) [Compound 268, Methyl 2-(1-(1H-benzo[d]imidazol-5-yl)-5-(3-chloro-2,6-difluorophenyl)-2-thioxoimidazolidin-4-ylideneamino)propanoate]"
12,3.1,"C/N=C1/NC(=O)N(c2ccc3[nH]cnc3c2)C1c1ccc(N2CCCC2)cc1 (centres unmarked) [Compound 269, 1-(1H-Benzoimidazol-5-yl)-4-methylimino-5-(4-pyrrolidin-1-yl-phenyl)-imidazolidin-2-one]"
13,1.3,"O=C(C/N=C1/NC(=S)N(c2ccc3[nH]cnc3c2)C1c1ccnc2ccccc12)N1CCC(O)CC1 (centres unmarked) [Compound 270, 2-(1-(1H-benzo[d]imidazol-5-yl)-5-(quinolin-4-yl)-2-thioxoimidazolidin-4-ylideneamino)-1-(4-hydroxypiperidin-1-yl)ethanone]"
14,0.4,"O=C1N/C(=N/Cn2nnc3ccccc32)C(c2ccc3nsnc3c2)N1c1ccc2[nH]cnc2c1 (centres unmarked) [Compound 271, 1-(1H-Benzoimidazol-5-yl)-5-benzo[c][1,2,5]thiadiazol-5-yl-4-benzotriazol-1-ylmethylimino-imidazolidin-2-one]"
15,8.5,"S=C1N/C(=N\C2CCCC2)C(c2ccc(Cl)cc2)N1c1ccc2[nH]cnc2c1 (centres unmarked) [Compound 272, 1-(1H-Benzoimidazol-5-yl)-5-(4-chloro-phenyl)-4-cyclopentylimino-imidazolidine-2-thione]"
16,7.6,"CC1=CC(C)C(C2/C(=N/C3CCc4ccccc43)NC(=S)N2c2ccc3[nH]cnc3c2)CC1 (centres unmarked) [Compound 273, 1-(1H-Benzoimidazol-5-yl)-5-(2,4-dimethyl-cyclohex-3-enyl)-4-indan-1-ylimino-imidazolidine-2-thione]"
17,4,"CC1=CC(C)C(C2/C(=N/CCCN3CCCC3=O)NC(=O)N2c2ccc3[nH]cnc3c2)CC1 (centres unmarked) [Compound 275, 1-(1H-Benzoimidazol-5-yl)-5-(2,4-dimethyl-cyclohex-3-enyl)-4-3-(2-oxo-pyrrolidin-1-yl)-propylimino-imidazolidin-2-one]"
18,7.6,"CC1=CC(C)C(C2/C(=N/C(C)C(C)(C)C)NC(=S)N2c2ccc3nc[nH]c3c2)CC1 (centres unmarked) [Compound 276, 1-(1H-Benzoimidazol-5-yl)-5-(2,4-dimethyl-cyclohex-3-enyl)-4-1,2,2-trimethyl-propylimino-imidazolidine-2-thione]"
